Results: publication PMC9598926, “Design and Synthesis of (Z)-5-(Substituted benzylidene)-3-cyclohexyl-2-thioxothiazolidin-4-one Analogues as Anti-Tyrosinase and Antioxidant Compounds: In Vitro and In Silico Insights” (Antioxidants, 2022)

Tests used:
[1] = tested on: mushroom tyrosinase; test: Mushroom tyrosinase activity assay (L-tyrosine as substrate); type: biochemical; settings: for tyrosinase inhibition relative to kojic acid: fold more than kojic acid; for IC50: mushroom tyrosinase, means ± SEMs of triplicate determinations; for enhancement of tyrosinase inhibitory activity relative to analog 1: versus analog 1
Description: 2.2. […] In brief, 20 µL of an aqueous mushroom tyrosinase solution (1000 units/mL) and 170 µL of a substrate mixture containing 345 µM of L-tyrosine and 17.2 mM of sodium phosphate buffer (pH 6.5) were added to wells of a 96-well microplate. […] Amounts of dopachrome produced were assessed by measuring optical densities at 475 nm using a microplate reader (VersaMax®, Molecular Devices, Sunnyvale, CA, USA). […] Experiments were independently conducted three times.

[2] = tested on: mushroom tyrosinase; test: Kinetic studies on mushroom tyrosinase inhibition (Lineweaver–Burk and Dixon plots, L-tyrosine); type: biochemical; settings: for mode of mushroom tyrosinase inhibition: L-tyrosine as substrate; for Ki: mushroom tyrosinase
Description: 2.6. Kinetic Studies on Mushroom Tyrosinase Inhibition by Analogues 2 and 3
Lineweaver–Burk plots of analogues 2 and 3 were used to determine modes of mushroom tyrosinase inhibition in the presence of L-tyrosine as substrate. Briefly, 20 µL of an aqueous mushroom tyrosinase solution (200 units/mL), and 170 µL of an aqueous solution consisting of L-tyrosine at various concentrations (final concentrations: 0, 1, 2, 4, 8, or 16 mM), and sodium phosphate buffer (pH 6.5, final concentration: 14.7 mM) were added to the wells of a 96-well microplate. Subsequently, analogues 2 and 3 at four different concentrations (10 µL; final concentrations 0, 5, 10, or 20 µM in DMSO solution for 2, and concentrations of 0, 1, 2, or 4 µM in DMSO solution for 3) were added to wells. Initial rates of dopachrome formation were determined by measuring changes in absorbance at 475 nm per min (ΔOD475/min) using a microplate reader (VersaMax®, Molecular Devices, Sunnyvale, CA, USA). Maximum velocities (Vmax) were calculated from Lineweaver–Burk plots obtained using six different L-tyrosine concentrations. The modes of mushroom tyrosinase inhibition by the analogs were determined using the locations of plot convergence points.
Lineweaver–Burk double reciprocal plots were used to analyze enzyme’s inhibitory mechanisms. Kinetic studies were conducted using four different concentrations of analogs 2 (0, 5, 10, or 20 μM) and 3 (0, 1, 2, or 4 μM) in the presence of L-tyrosine at five different concentrations (1, 2, 4, 8, or 16 mM).

[3] = ROS scavenging activity assay (DCFH-DA/esterase, SIN-1); settings: SIN–1 10 µM; 5, 10, 20 µM
Description: 2.13. ROS Scavenging Activity Assay
The ROS scavenging activities of analogs 1–8 and Troloxwere determined as previously described by Ali et al. and Lebel and Bondy. Briefly, 2.5 mM DCFH-DA (2’,7’-dichlorodihydrofluorescein diacetate) (Molecular Probes, Eugene, OR, USA) solution was mixed with esterase (1.5 units/mL) in 50 mM phosphate buffer (pH 7.4), held for 30 min at 37 °C, and keep on ice in the dark until required. Tested compounds (10 µL; final concentrations: 5, 10, and 20 µM) dissolved in DMSO and SIN-1 (3-morpholinosydnonimine) (10 µM) and 180 µL of phosphate buffer in the wells of a black 96-well plate for 30 min. The 50 µL of DCFH-DA-esterase mixture (20 µM) was added. Fluorescence intensities of oxidized DCFH (DCF or 2′,7′-dichlorofluorescein) were measured using a microplate reader (Berthold Advances GmbH & Co., Bad Wildbad, Germany) with excitation and emission wavelengths of 485 and 530 nm, respectively. Trolox was used as the reference control.
Since it has been reported that reactive oxygen species (ROS) are concerned in the regulation of melanogenesis, we examined the ROS scavenging activities of analogs 1–8 using DCFH-DA (2′,7′-dichlorodihydrofluorescein diacetate) and esterase. Trolox and SIN–1 (3-morpholinosydnonimine) were used as the positive control and a ROS generator, respectively. Hydrolysis of DCFA-DA by esterase generates DCFH (2′,7′-dichlorodihydrofluorescein), which reacts with ROS generated by SIN–1 to produce the fluorescent compound DCF (2′,7′-dichlorofluorescein). Thus, ROS scavenging activities of analogs were assessed by measuring DCF fluorescence. […] Test samples including Trolox were treated at three different concentrations (5, 10, or 20 µM).

[4] = Peroxynitrite (ONOO−) scavenging activity assay (DHR 123, SIN-1); settings: SIN–1 10 µM; 5, 10, 20 µM
Description: 2.14. Peroxynitrite (ONOO^−) Scavenging Activity Assay
Peroxynitrite-scavenging activities were determined as described by Kooy et al. with modification. This method monitors the fluorescence of rhodamine 123, which is formed rapidly when non-fluorescent DHR 123 (dihydrorhodamine 123) (Molecular Probes, Eugene, OR, USA) in the presence of peroxynitrite. The rhodamine buffer solution (pH 7.4) included of 50 mM sodium phosphate, 90 mM sodium chloride, 5 mM potassium chloride, and 100 µM DTPA. The final concentration of DHR 123 was 5 µM. In this assay, the buffer solution was prepared prior to use and then stood on ice. Test compounds (10 µL, final concentrations: 5, 10, and 20 µM) dissolved in DMSO and added to 10 µL SIN-1 (10 µM) and 180 µL rhodamine buffer solution in the wells of a black 96-well plate. Fluorescence intensities of oxidized DHR 123 were measured using a fluorescence plate reader (Berthold Advances GmbH & Co., Bad Wildbad, Germany) with an excitation and emission wavelengths of 485 and 535 nm, respectively. Peroxynitrite scavenging activity was calculated after subtracting background fluorescence from final fluorescence intensity. Results are expressed as means ± standard deviation (SD), and L-penicillamine was used as a positive control.
Several RNS (reactive nitrogen species), including peroxynitrite (ONOO^–) and nitric oxide, are known to be involved in the induction of the melanogenesis. Therefore, we investigated the effects of analogs 1–8 on peroxynitrite scavenging activity using DHR123 (dihydrorhodamine) as a ROS indicator and SIN–1 as an RNS generator. Peroxynitrite generated by SIN–1 oxidizes DHR123 to rhodamine 123, a fluorescent compound. Thus, the effects of analogs on peroxynitrite scavenging ability were determined by measuring rhodamine 123 fluorescence.

Row | Structure (SMILES) | tyrosinase inhibition relative to kojic acid [1] [fold] | IC50 [1] [nM] | enhancement of tyrosinase inhibitory activity relative to analog 1 [1] [fold] | mode of mushroom tyrosinase inhibition ([2]; Lineweaver–Burk plots) | Km ([2]; Lineweaver–Burk plots, L-tyrosine, independent of analog 3 concentration (0, 1, 2, 4 µM)) [µM] | Ki ([2]; L-tyrosine) [nM] | ROS scavenging [3] | ROS scavenging compared with Trolox [3] | peroxynitrite scavenging compared with penicillamine [4] | Vmax ([2]; Lineweaver–Burk plots, L-tyrosine, independent of analog 2 concentration (0, 5, 10, 20 µM)) [mM/min]
1 | O=C1/C(=C/c2ccc(O)cc2O)SC(=S)N1C1CCCCC1 [Analog 3, (Z)-3-Cyclohexyl-5-(2,4-dihydroxybenzylidene)-2-thioxothiazolidin-4-one] | 25 | 1030 ± 140 | 63 | non-competitive | 2810 | 1270 | significantly and concentration-dependently scavenged ROS | more potently than Trolox | much more potently than penicillamine | –
2 | O=C1/C(=C/c2ccc(O)c(O)c2)SC(=S)N1C1CCCCC1 [Analog 2, (Z)-3-Cyclohexyl-5-(3,4-dihydroxybenzylidene)-2-thioxothiazolidin-4-one] | 5 | 5210 ± 860 | 13 | competitively | – | 2220 | significantly and concentration-dependently scavenged ROS | more potently than Trolox | much more potently than penicillamine | 0.00343
